Values quoted from earlier work in patent US20050220753A1, “Hydrophilic polymers-flavoids conjugates and pharmaceutical compositions comprising them” (BEIJING JIANKAI TECHNOLOGY CO., LTD, priority 2002, published 2005).
Where two headings read alike, the source gives them in different places.

Assays:
[1] = rats, intravenous injection
[2] = human, intravenously infused

In the case of O=c1cc(-c2ccccc2)oc2cc(O)c(O)c(O)c12 [Baicalein], the absorption half-life [1] is given as 13 min and the elimination half-life [1] is given as 42 min.

For O=c1c(-c2ccc(O)cc2)coc2c([C@@H]3O[C@H](CO)[C@@H](O)[C@H](O)[C@H]3O)c(O)ccc12 [Puerarin], the elimination half-life [2] is listed as 74 min.
